Data: patent US9359423B2, “Protein involved in detection of cancer metastasis and a treatment thereof” (National University of Singapore, priority 2011, dated 2016)

How the values were obtained:
TRPV4 [1] = biological target: T1, TRPV4 (Homo sapiens, UniProt Q9HBA0); settings: 4α-phorbol 12,13-didecanoate stimulation; cited from earlier work
endogenous TRPV4 = biological target: T2, endogenous TRPV4 (Mus musculus, UniProt Q9EPK8); settings: read-out: IC50, endogenous TRPV4-mediated response to 4α-PDH; 4α-PDH stimulation; cited from earlier work
T2 construct: endogenous in cells
T2 sequence (Q9EPK8 whole entry): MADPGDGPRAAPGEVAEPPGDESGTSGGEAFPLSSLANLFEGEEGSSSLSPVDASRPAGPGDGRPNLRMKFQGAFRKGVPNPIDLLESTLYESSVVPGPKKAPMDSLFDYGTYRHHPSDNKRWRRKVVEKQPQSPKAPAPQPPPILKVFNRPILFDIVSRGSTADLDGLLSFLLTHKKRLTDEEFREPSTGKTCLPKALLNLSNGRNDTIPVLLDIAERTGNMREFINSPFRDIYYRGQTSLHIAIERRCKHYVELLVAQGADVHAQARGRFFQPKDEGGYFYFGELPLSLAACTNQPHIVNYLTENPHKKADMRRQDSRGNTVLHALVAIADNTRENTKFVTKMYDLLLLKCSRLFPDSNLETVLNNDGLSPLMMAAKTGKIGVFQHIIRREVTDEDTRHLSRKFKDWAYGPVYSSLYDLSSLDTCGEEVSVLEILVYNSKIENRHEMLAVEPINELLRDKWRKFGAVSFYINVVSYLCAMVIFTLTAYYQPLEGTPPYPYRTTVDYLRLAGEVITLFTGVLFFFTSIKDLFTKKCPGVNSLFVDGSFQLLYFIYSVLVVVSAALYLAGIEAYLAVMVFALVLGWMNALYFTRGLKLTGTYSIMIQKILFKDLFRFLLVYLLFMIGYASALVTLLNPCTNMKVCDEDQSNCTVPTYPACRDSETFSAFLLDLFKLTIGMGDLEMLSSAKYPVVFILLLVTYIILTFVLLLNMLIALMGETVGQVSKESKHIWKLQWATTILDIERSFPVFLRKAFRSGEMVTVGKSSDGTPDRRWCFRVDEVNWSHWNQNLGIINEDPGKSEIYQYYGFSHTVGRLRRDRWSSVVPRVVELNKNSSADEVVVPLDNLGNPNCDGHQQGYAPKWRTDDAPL

[2] = cited from earlier work
TRPV4 [3] = biological target: T1, TRPV4; settings: cited from earlier work
[4] = tested on: E-cadherin, b-catenin and paxillin; assay: Expression of cell-adhesion proteins after activation of TRPV4 by PDD; format: cell-based; settings: PDD treatment, FIG. 4B
Text: (§1) FIG. 4A—Silencing of TRPV4 expression was associated with a failure to produce a rise of intracellular Ca2+ upon stimulation with PDD. […] 4C—Activation of TRPV4 by PDD treatment stimulated AKT, FAK and MAPK pathway.
FIG. 5—AKT mediates TRPV4-induced downregulation of E-cadherin and b-catenin. Down regulation of these cytoskeletal proteins correlate with an increase in cancer cell plasticity required for intravasation and extravasation processes during metastasis. Cells were either treated or not treated with PDD (activator of TRPV4) in the presence or absence of AKT inhibitor). Top 1 and 2 panels, inhibition of AKT is confirmed by probing the phosphorylation status of S6, a downstream target of AKT. Bottom 3-5 panels, PDD-induced downregulation of E-cadherin and b-catenin.

[5] = tested on: AKT, FAK and MAPK pathway; assay: Pathway activation after activation of TRPV4 by PDD; format: cell-based; settings: PDD treatment, FIG. 4C
Text: as §1

T1 sequence (Q9HBA0 whole entry, species assumed): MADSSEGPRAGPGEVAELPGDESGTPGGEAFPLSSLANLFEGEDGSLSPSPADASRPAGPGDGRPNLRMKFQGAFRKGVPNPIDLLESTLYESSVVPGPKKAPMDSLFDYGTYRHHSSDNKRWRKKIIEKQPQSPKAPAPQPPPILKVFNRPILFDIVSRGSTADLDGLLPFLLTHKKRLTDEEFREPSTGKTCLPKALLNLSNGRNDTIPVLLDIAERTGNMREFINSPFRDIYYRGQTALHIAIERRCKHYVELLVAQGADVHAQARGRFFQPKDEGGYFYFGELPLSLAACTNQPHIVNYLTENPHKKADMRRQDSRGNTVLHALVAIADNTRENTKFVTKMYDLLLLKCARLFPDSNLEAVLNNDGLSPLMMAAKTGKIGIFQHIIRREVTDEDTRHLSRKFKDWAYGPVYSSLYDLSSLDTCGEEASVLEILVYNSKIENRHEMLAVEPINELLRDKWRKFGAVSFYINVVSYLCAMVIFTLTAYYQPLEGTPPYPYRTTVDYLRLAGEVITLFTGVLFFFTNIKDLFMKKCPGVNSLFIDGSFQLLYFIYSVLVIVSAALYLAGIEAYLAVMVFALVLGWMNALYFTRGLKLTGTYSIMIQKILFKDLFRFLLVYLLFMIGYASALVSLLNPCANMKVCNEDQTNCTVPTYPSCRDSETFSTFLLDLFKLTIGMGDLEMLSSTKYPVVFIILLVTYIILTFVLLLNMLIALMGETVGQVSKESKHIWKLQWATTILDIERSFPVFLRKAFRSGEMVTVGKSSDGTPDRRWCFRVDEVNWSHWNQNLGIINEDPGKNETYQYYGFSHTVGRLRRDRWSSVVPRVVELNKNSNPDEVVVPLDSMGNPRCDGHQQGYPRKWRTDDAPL

Cc1c(C(=O)Nc2cccc(C(F)(F)F)c2)cc(-c2ccccc2)n1CCCN1CCOCC1 [formula 3]
Effect on 4α-PDD-induced Ca2+ responses (TRPV4 [1]): reduces

Cc1c(C(=O)Nc2cccc(C(F)(F)F)c2)cc(-c2ccccc2)n1CCCN1CCOCC1 [formula 1, 2-Methyl-1-[3-(4-morpholinyl)propyl]-5-phenyl-N-[3-(trifluoromethyl)phenyl]-1H-pyrrole-3-carboxamide]
IC50 (endogenous TRPV4): 22 nM
Solubility in DMSO ([2]; DMSO): 100 mM
Solubility in ethanol ([2]; ethanol): 25 mM

N.N.N.N.N.N.N.N.N.N.N.N.N.N.[Cl-].[Cl-].[Cl-].[Cl-].[Cl-].[Cl-].[O-2].[O-2].[Ru+3].[Ru+3].[Ru+4] [Ruthenium red]
Inhibition of TRPV4 (TRPV4 [3]): known inhibitor of TRPV4

CCCCCCCCCC(=O)O[C@@H]1[C@@H](C)[C@@]2(O)[C@@H](C=C(CO)C[C@@]3(O)C(=O)C(C)=C[C@@H]23)[C@@H]2C(C)(C)[C@]12OC(=O)CCCCCCCCC [PDD, 4α-phorbol 12,13-didecanoate]
Expression of cell-adhesion proteins like E-cadherin, b-catenin and paxillin [4]: reduced
AKT, FAK and MAPK pathway activation [5]: stimulated
